Assay results published in patent publication US20150351390A1, “COMPOSITIONS AND METHODS FOR AUXIN-ANALOG CONJUGATION” (PIONEER HI-BRED INTERNATIONAL, INC., priority 2012, published 2015).

Assays:
Soybean seeds = experiment: Phytotoxicity evaluation during soybean germination; type: in vivo; conditions: 1 μM in germination media, 10 days
Method: To evaluate the effect of synthetic auxin conjugates in plants, 2,4-D-Asp, 2,4-D-Glu, dicamba-Asp, and dicamba-Glu were synthesized (Irvine Chemistry Laboratory, Anaheim, Calif.) and tested for auxin effects during soybean germination.
Asp and Glu conjugates of 2,4-D and dicamba were dissolved in a small quantity of Na2CO3 and ethanol, respectively, diluted in ddH2O to obtain 10 mM stock solution, and filter sterilized. Soybean seeds of a Pioneer elite germplasm were sterilized with chlorine gas as following: a) two layers of seeds were placed in a 100×25 mm plastic Petri dish; b) in an exhaust fume hood, seeds were placed into a glass desiccator with a 250 mL beaker containing 100 mL bleach (5% NaOC1) and 3.5 mL 12N HCl was slowly added to the beaker; c) the lid was sealed closed on the desiccator and the seeds sterilized for at least 24 hr.
Sterilized soybean seeds were then imbibed in ddH2O under sterile conditions at 25° C. for 24 hours before germination test. For germination test, 6-8 imbibed seeds were placed on a 100×25 mm deep Petri dish plate containing 50 ml germination media supplemented with or without auxin herbicide conjugates. 1 L seed germination media contains 3.21 g GAMBORG B-5 basal medium (PhytoTech), 20 g sucrose, 5 g tissue culture agar, and is pH adjusted to 5.7. Media was autoclaved at 121° C. for 25 min and cooled to 60° C. before the addition of auxin conjugates. Germination was carried out in a Percival growth chamber at 25° C. under 18 hr light and 6 hr dark cycle at 90 to 150 μE/m2/s and grown for 10 days.

soybean seedlings = experiment: Soybean seedling response to spot infiltrated auxins and conjugates; as to 1st trifoliate leaf curl: key: 0 = no phenotype; +/− = threshold; as to Chlorotic lesion @ app. Pnt: key: 0 = no phenotype; +/− = threshold; type: in vivo; parameters: 1st trifoliate leaf curl / Epinasty score: key: 0 = no phenotype; +/− = threshold; conditions: for 1st trifoliate leaf curl / Epinasty score / Chlorotic lesion @ app. Pnt: spot infiltration; for Plant response phenotype, soybean: result in words
Method: Conjugate forms of auxinic compounds when applied through spot infiltration, a needleless method to introduce exogenous agents into plant cells. Initially, various concentrations of analytical grade (98%+pure) IAA, 2,4-D, and dicamba were prepared as solutions that were applied directly to uni-foliate leaves of 9 day old soybean seedlings by spot infiltration in order to determine the range of auxinic response and severity.
Spot infiltration comprises applying a compound to be tested in composition that is applied to the surface of a plant, for example, to a leaf or other plant structure. For example, a method for testing a plant response to one or more compounds using spot infiltration comprises a) providing a composition comprising one or more compounds to be tested in a container having at least an opening for the compound enter and/or exit, and one or more elements for moving the composition into or out of the container; b) contacting at least one opening of the container with the surface of a plant and moving the composition comprising one or more compounds to at least the surface of the plant. A container and elements for moving the composition may comprise a syringe body and plunger. Moving the composition to the plant surface comprises contacting the surface with pressure sufficient for the composition to enter the cells of the plant. In an aspect, spot filtration testing comprises measuring an effect of the composition on the contacted plant and comparing that measure or effect to a plant that is not contacted with the composition.
Plant response phenotypes were documented at one day post-spot infiltration and subsequently every other day, up to nine days post treatment. […] In the studies described herein below, 5 replicate treatments for each conjugate form were conducted, along with appropriate negative controls.
(§1) Examples 9 and 10 utilized a spot infiltration method for the delivery of an herbicide directly to leaves of a plant. The method generally allows for the directed delivery of a variety of agents to a localized area of a plant, e.g. localized region of leaves, for screening or assessment purposes, e.g. to quickly assess the response of a plant to the agent. As used in the foregoing examples, the spot infiltration method was used to introduce specific herbicides or specific conjugates of the herbicides to seedling plant leaves. Following introduction of the herbicide or the appropriate conjugate, plants were observed daily for nine days for characteristics of epinasty, trifoliate leaf curly, chlorosis, and new growth recovery.
(§2) Briefly, a solution of the desired agent is prepared of the desired agent, e.g. as described above in Example 10, solutions (5% EtOH) of 1, 2.5 and 5 mM IAA. The solution is then drawn into a 1 mL BD™ slip-tip syringe, bulk, non-sterile syringe (e.g. Becton, Dickinson and Company, Product No. 301025) with 100 μL markings. The desired volume is then applied to the leaf, e.g. as described in Examples 9 and 10, with the tip of the syring against the leaf and positive pressure applied to the syringe plunger. Sufficient pressure is applied in order to infuse the area beneath the syringe opening, but not so much pressure as to cause a visible-to-the-eye puncture or hole to form in the leaf. Some run-off of solution around the syringe opening is expected. In the foregoing examples, two spots were applied to each of two leaves per seedling for soybean plants. […] In soybean, both spots per leaf were at the distal portion of the leaf about 1-2 cm apart. When the method was applied to Arabidopsis, two developmentally intermediate aged leaves were chosen per plant, and one spot infiltration was carried out per leaf.

[1] = test system: Arabidopsis ecotype Col-0 plant; experiment: Arabidopsis response to spot infiltrated auxins and conjugates; type: in vivo, Arabidopsis thaliana; conditions: result in words
Method: The effect of auxin conjugates was assessed using Arabidoposis (Arabidopsis thialiana) ecotype Col-0 plant. Prior to studies utilizing the auxin conjugates, levels of analytical grade (98%+pure) IAA, 2,4-D and dicamba in solution were applied at various concentrations directly to developmentally similar leaves of 20-23 day old Arabidopsis seedlings by needleless syringe spot infiltration methodology, in order to determine range of auxinic response and severity. Phenotypes were documented relative to control at 1 day post-spot infiltration and subsequently every other day, up to nine days post treatment. Three concentrations were chosen based on reproducibility, and conjugated forms were then studied with 4 or more replicate treatments for each, along with appropriate negative controls (H2O and 10% EtOH).
as §1, §2
Generally, for Arabidopsis, the two leaves were chosen from opposite sides of rosette. In general, the spot infiltration method is carried out on younger plants in order to minimize experimental footprint and to maintain developmental uniformity. However, the method is not limited to use on young plants and can be easily applied to older plants as determined by the goals of a particular experiment.

O=C(O)C[C@H](NC(=O)COc1ccc(Cl)cc1Cl)C(=O)O [2,4-D-Asp]
Soybean seed germination and growth (Soybean seeds): seed germination and growth were normal
1st trifoliate leaf curl (soybean seedlings; 100 μM): 0
1st trifoliate leaf curl (soybean seedlings; 250 μM): 0
1st trifoliate leaf curl (soybean seedlings; 500 μM): 0
Plant response phenotype, soybean (soybean seedlings; 100, 250 & 500 μM): auxinic response nearly equivalent to that of 2,4-D

O=C(O)CC[C@H](NC(=O)COc1ccc(Cl)cc1Cl)C(=O)O [2,4-D-Glu]
Soybean seed germination and growth (Soybean seeds): seed germination and growth were normal
1st trifoliate leaf curl (soybean seedlings; 100 μM): 0
Epinasty score (soybean seedlings; 100 μM): +/−
1st trifoliate leaf curl (soybean seedlings; 250 μM): 0
Epinasty score (soybean seedlings; 250 μM): +/−
1st trifoliate leaf curl (soybean seedlings; 500 μM): 0
Plant response phenotype, soybean (soybean seedlings; 500 μM): modest epinasty
Plant response phenotype, soybean (soybean seedlings; 100, 250 & 500 μM): distinctly lower level of severity
Plant response phenotype, soybean (soybean seedlings; lower concentration than 500 μM): no discernible auxinic responses

COc1c(Cl)ccc(Cl)c1C(=O)O [dicamba, 3,6-dichloro-2-methoxybenzoic acid free acid]
Phenotype, Arabidopsis ([1]; 50, 100 and 250 μM): petiole epinasty and leaf curling at day one
Soybean seed germination and growth (Soybean seeds): seed germination was arrested
Chlorotic lesion @ app. Pnt (soybean seedlings; 50 μM): 0
Chlorotic lesion @ app. Pnt (soybean seedlings; 100 μM): 0
Chlorotic lesion @ app. Pnt (soybean seedlings; 250 μM): 0
Plant response phenotype, soybean (soybean seedlings; 50, 100 and 250 μM): epinasty at day 1 and leaf curling of 1st tri-foliate

COc1c(Cl)ccc(Cl)c1C(=O)NC(CC(=O)O)C(=O)O (centres unmarked) [dicamba-Asp]
Phenotype, Arabidopsis ([1]; 50, 100 and 250 μM): No obvious phenotype
Soybean seed germination and growth (Soybean seeds): seed germination and growth were normal
1st trifoliate leaf curl (soybean seedlings; 50 μM): 0
Chlorotic lesion @ app. Pnt (soybean seedlings; 50 μM): 0
Epinasty score (soybean seedlings; 50 μM): 0
1st trifoliate leaf curl (soybean seedlings; 100 μM): 0
Chlorotic lesion @ app. Pnt (soybean seedlings; 100 μM): 0
Epinasty score (soybean seedlings; 100 μM): 0
1st trifoliate leaf curl (soybean seedlings; 250 μM): 0
Chlorotic lesion @ app. Pnt (soybean seedlings; 250 μM): 0
Epinasty score (soybean seedlings; 250 μM): 0
Plant response phenotype, soybean (soybean seedlings; 50, 100 and 250 μM): phenotypes similar to that of negative control

COc1c(Cl)ccc(Cl)c1C(=O)NC(CCC(=O)O)C(=O)O (centres unmarked) [dicamba-Glu]
Phenotype, Arabidopsis ([1]; 100 and 250 μM, compared to dicamba alone): modest epinasty
Soybean seed germination and growth (Soybean seeds): seed germination and growth were normal
1st trifoliate leaf curl (soybean seedlings; 50 μM): 0
Chlorotic lesion @ app. Pnt (soybean seedlings; 50 μM): 0
Epinasty score (soybean seedlings; 50 μM): 0
1st trifoliate leaf curl (soybean seedlings; 100 μM): 0
Chlorotic lesion @ app. Pnt (soybean seedlings; 100 μM): 0
Epinasty score (soybean seedlings; 100 μM): 0
1st trifoliate leaf curl (soybean seedlings; 250 μM): 0
Chlorotic lesion @ app. Pnt (soybean seedlings; 250 μM): 0
Epinasty score (soybean seedlings; 250 μM): 0
Plant response phenotype, soybean (soybean seedlings; 50, 100 and 250 μM): phenotypes similar to that of negative control
